In US7265103B2, “Substituted amino isoxazoline derivatives and their use as anti-depressants” (Janssen Pharmaceutica NV., priority 2002, dated 2007):

Tests used:
[1] = molecular target: T1, hα2A receptor (Homo sapiens, UniProt P08913); experiment: Radioligand binding experiment for α2A-adrenergic receptor ([3H]-raulwolscine); details: CHO cell membranes with human α2A receptor, [3H]raulwolscine 1 nM; read-out: pIC50 α2A (converted)
T1 construct: expressed in transfected cells; host or cells: CHO cells
T1 sequence (P08913 1-465): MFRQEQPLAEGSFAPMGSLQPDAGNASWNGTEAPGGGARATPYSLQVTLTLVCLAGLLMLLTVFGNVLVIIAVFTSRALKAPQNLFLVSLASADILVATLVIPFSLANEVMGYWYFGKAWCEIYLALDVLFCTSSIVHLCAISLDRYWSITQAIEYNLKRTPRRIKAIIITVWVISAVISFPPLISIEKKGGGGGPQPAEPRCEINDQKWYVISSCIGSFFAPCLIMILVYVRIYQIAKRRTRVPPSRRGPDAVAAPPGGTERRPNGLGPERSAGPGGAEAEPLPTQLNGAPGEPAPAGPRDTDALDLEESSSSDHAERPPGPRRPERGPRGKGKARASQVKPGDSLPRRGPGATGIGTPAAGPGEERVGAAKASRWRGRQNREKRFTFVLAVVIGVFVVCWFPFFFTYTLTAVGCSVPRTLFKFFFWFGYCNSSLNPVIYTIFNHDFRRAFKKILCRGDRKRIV
Description: (§1) The interaction of the compounds of Formula (I) with hα2-receptors and h5-HT-transporters was assessed in in vitro radioligand binding experiments. In general, a low concentration of a radioligand with a high binding affinity for a particular receptor or transporter is incubated with a sample of a tissue preparation enriched in a particular receptor or transporter or with a preparation of cells expressing cloned human receptors in a buffered medium. During the incubation, the radioligand binds to the receptor or transporter. When equilibrium of binding is reached, the receptor bound radioactivity is separated from the non-bound radioactivity, and the receptor- or transporter-bound activity is counted. The interaction of the test compounds with the receptor is assessed in competition binding experiments. Various concentrations of the test compound are added to the incubation mixture containing the receptor- or transporter preparation and the radioligand. The test compound in proportion to its binding affinity and its concentration inhibits binding of the radioligand. The radioligand used for hα2A, hα2B and hα2C receptor binding was [^3H]-raulwolscine and for the h5-HT transporter was [^3H]paroxetine.
(§2) CHO cells, stabile transfected with human adrenergic-α2A-, -α2B or α2C receptor cDNA, were cultured in Dulbecco's Modified Eagle's Medium (DMEM)/Nutrient mixture Ham's F12 (ratio 1:1)(Gibco, Gent-Belgium) supplemented with 10% heat inactivated fetal calf serum (Life Technologies, Merelbeke-Belgium) and antibiotics (100 IU/ml penicillin G, 100 μg/ml streptomycin sulphate, 110 μg/ml pyruvic acid and 100 μg/ml L-glutamine). One day before collection, cells were induced with 5 mM sodiumbutyrate. Upon 80-90% of confluence, cells were scraped in phosphate buffered saline without Ca^2+ and Mg^2+ and collected by centrifugation at 1500×g for 10 min. The cells were homogenised in Tris-HCl 50 mM using an Ultraturrax homogenizer and centrifuged for 10 min at 23,500×g. The pellet was washed once by resuspension and rehomogenization and the final pellet was resuspended in Tris-HCl, divided in 1 ml aliquots and stored at −70° C.
(§3) Membranes were thawed and re-homogenized in incubation buffer (glycylglycine 25 mM, pH 8.0). In a total volume of 500 μl, 2-10 μg protein was incubated with [^3H]raulwolscine (NET-722) (New England Nuclear, USA) (1 nM final concentration) with or without competitor for 60 min at 25° C. followed by rapid filtration over GF/B filter using a Filtermatel 96 harvester (Packard, Meriden, Conn.). Filters were rinsed extensively with ice-cold rinsing buffer (Tris-HCl 50 mM pH 7.4). Filter-bound radioactivity was determined by scintillation counting in a Topcount (Packard, Meriden, Conn.) and results were expressed as counts per minute (cpm). Non-specific binding was determined in the presence of 1 μM oxymetazoline for hα2A- and hα2B receptors and 1 μM spiroxatrine for hα2C receptors.
(§4) Data from assays in the presence of compound were calculated as a percentage of total binding measured in the absence of test compound. Inhibition curves, plotting percent of total binding versus the log value of the concentration of the test compound, were automatically generated, and sigmoidal inhibition curves were fitted using non-linear regression. The pIC50 values of test compounds were derived from individual curves.

[2] = molecular target: T2, hα2C receptor (Homo sapiens, UniProt P18825); experiment: Radioligand binding experiment for α2C-adrenergic receptor ([3H]-raulwolscine); details: CHO cell membranes with human α2C receptor, [3H]raulwolscine 1 nM; read-out: pIC50 α2C (converted)
T2 construct: expressed in transfected cells; host or cells: CHO cells
T2 sequence (P18825 1-462): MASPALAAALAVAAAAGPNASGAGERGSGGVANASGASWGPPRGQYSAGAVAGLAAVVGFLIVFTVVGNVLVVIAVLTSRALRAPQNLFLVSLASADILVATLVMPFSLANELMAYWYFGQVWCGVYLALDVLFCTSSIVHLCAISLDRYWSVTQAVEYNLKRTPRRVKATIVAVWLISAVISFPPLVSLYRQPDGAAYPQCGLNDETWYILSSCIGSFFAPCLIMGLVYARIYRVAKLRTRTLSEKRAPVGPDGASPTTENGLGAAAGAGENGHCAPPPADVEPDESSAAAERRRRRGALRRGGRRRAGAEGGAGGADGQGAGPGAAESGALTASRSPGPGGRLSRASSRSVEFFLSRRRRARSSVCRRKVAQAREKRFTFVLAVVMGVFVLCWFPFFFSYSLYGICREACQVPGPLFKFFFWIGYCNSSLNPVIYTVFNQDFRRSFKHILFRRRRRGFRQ
Description: as §1, §2, §3, §4

[3] = molecular target: T3, h5-HT transporter (Homo sapiens, UniProt P31645); experiment: Radioligand binding experiment for 5-HT transporter ([3H]paroxetine); details: human platelet membranes, [3H]paroxetine 0.5 nM
T3 construct: Human platelet membranes (Oceanix Biosciences Corporation, Hanover, Md., USA) were thawed; tissue Oceanix Biosciences Corporation; host or cells: human platelet membranes
Description: as §1
Human platelet membranes (Oceanix Biosciences Corporation, Hanover, Md., USA) were thawed, diluted in buffer (Tris-HCl 50 mM, 120 mM NaCl and 5 mM KCl) and quickly (max 3 s) homogenised with an Ultraturrax homogenizer. In a total volume of 250 μL, 50-100 μg protein was incubated with [^3H]paroxetine (NET-869) (New England Nuclear, USA) (0.5 nM final concentration) with or without competitor for 60 min at 25° C. Incubation was stopped by rapid filtration of the incubation mixture over GF/B filters, pre-wetted with 0.1% polyethyleneamine, using a Filtermatel 96 harvester (Packard, Meriden, Conn.). Filters were rinsed extensively with ice-cold buffer and radioactivity on the filters was counted in a Topcount liquid scintillation counter (Packard, Meriden, Conn.). Data were expressed as cpm. Imipramine (at 1 μM final concentration) was used to determine the non-specific binding.
as §4

T3 sequence (P31645 whole entry): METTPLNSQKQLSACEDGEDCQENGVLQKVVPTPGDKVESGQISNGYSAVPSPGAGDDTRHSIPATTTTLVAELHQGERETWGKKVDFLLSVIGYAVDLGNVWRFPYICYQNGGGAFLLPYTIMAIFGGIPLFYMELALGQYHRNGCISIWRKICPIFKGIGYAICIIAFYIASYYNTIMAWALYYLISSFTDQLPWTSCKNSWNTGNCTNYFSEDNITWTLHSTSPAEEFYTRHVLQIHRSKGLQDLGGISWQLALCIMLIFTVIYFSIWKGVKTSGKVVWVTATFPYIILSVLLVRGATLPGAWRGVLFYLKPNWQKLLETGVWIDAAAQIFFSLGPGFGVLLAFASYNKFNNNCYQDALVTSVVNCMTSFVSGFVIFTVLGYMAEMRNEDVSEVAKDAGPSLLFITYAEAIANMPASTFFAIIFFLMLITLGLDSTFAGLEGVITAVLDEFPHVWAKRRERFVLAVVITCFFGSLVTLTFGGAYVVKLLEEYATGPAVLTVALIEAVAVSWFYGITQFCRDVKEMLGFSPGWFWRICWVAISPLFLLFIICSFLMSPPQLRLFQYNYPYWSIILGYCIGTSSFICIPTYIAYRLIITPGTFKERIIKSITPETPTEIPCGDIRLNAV

Row | SMILES | IC50 [1] [nM] | IC50 [2] [nM] | IC50 [3] [nM]
1 | C/C(=C\c1ccccc1)CN1CCN(CC2ON=C3c4ccc(N(C)CCN(C)C)cc4OCC32)CC1 (stereo not drawn) [Compound 1] | 1.26 | 1 | 6.31
2 | COc1cc2c(cc1N)OCC1C2=NOC1CN1CCN(C/C(C)=C/c2ccccc2)CC1 (stereo not drawn) [Compound 8] | 5.01 | 1.58 | 25.1
3 | COc1cc2c(cc1NC(C)=O)OCC1C2=NOC1CN1CCN(C/C(C)=C/c2ccccc2)CC1 (stereo not drawn) [Compound 10] | 3.98 | 1.26 | 63.1
4 | COc1cc2c(cc1N(C)CCN(C)C)OCC1C2=NOC1CN1CCN(C/C(C)=C/c2ccccc2)CC1 (stereo not drawn) [Compound 11] | 2 | 1.58 | 3.16
5 | CC(=O)N1CCOc2cc3c(cc21)OCC1C3=NOC1CN1CCN(C/C(C)=C/c2ccccc2)CC1 (stereo not drawn) [Compound 12] | 2 | 1 | 31.6
6 | C/C(=C\c1ccccc1)CN1CCN(CC2ON=C3c4cc5c(cc4OCC32)N(C)CCO5)CC1 (stereo not drawn) [Compound 14] | 15.8 | 5.01 | 31.6
7 | CCNC(=O)N1CCOc2cc3c(cc21)OCC1C3=NOC1CN1CCN(C/C(C)=C/c2ccccc2)CC1 (stereo not drawn) [Compound 16] | 7.94 | 0.794 | 7.94
8 | CNc1cc2c(cc1OC)C1=NOC(CN3CCN(CC(C)=Cc4cccc(F)c4)CC3)C1CO2 (stereo not drawn) [Compound 17] | 7.94 | 2 | 12.6
9 | CCNc1ccc2c(c1)OCC1C2=NOC1CN1CCN(CC(C)=Cc2ccccc2)CC1 (stereo not drawn) [Compound 18] | 6.31 | 1.26 | 50.1
10 | CC(=Cc1ccc(F)cc1)CN1CCN(CC2ON=C3c4ccc(N(C)CCN)cc4OCC32)CC1 (stereo not drawn) [Compound 19] | 12.6 | 2.51 | 10
11 | CNCCNc1ccc2c(c1)OCC1C2=NOC1CN1CCN(CC(C)=Cc2ccc(F)cc2)CC1 (stereo not drawn) [Compound 20] | 31.6 | 3.16 | 7.94
12 | CC(=Cc1cccc(F)c1)CN1CCN(CC2ON=C3c4ccc(N(C)CCN(C)C)cc4OCC32)CC1 (stereo not drawn) [Compound 22] | 1.58 | 1.26 | 1.58
13 | CC(=Cc1ccc(F)cc1)CN1CCN(CC2ON=C3c4ccc(N(C)CCN(C)C)cc4OCC32)CC1 (stereo not drawn) [Compound 23] | 10 | 2 | 5.01
14 | CCN(CC)CCN(C)c1ccc2c(c1)OCC1C2=NOC1CN1CCN(CC(C)=Cc2ccc(F)cc2)CC1 (stereo not drawn) [Compound 25] | 6.31 | 0.398 | 7.94
15 | COc1cc2c(cc1NCCN1CCCC1)OCC1C2=NOC1CN1CCN(CC(C)=Cc2cccc(F)c2)CC1 (stereo not drawn) [Compound 27] | 15.8 | 3.16 | 5.01
16 | COc1cc2c(cc1NCCN1CCCC1)OCC1C2=NOC1CN1CCN(CC(C)=Cc2ccc(F)cc2)CC1 (stereo not drawn) [Compound 29] | 15.8 | 1.58 | 3.16
17 | CC(=Cc1ccc(F)cc1)CN1CCN(CC2ON=C3c4ccc(NCCN5CCOCC5)cc4OCC32)CC1 (stereo not drawn) [Compound 30] | 50.1 | 3.98 | 10
18 | CC(=Cc1ccccc1)CN1CCN(CC2ON=C3c4ccc(N(C)CCO)cc4OCC32)CC1 (stereo not drawn) [Compound 31] | 1.26 | 1.26 | 25.1
19 | COc1cc2c(cc1N(C)CCO)OCC1C2=NOC1CN1CCN(CC(C)=Cc2ccccc2)CC1 (stereo not drawn) [Compound 32] | 3.98 | 0.794 | 20

More lines, now with the values ahead:

Row | IC50 [1] [nM] | IC50 [2] [nM] | IC50 [3] [nM] | SMILES
20 | 631 | 39.8 | 12.6 | CC(=Cc1ccccc1)CN1CCN(CC2ON=C3c4ccc(N(C)CCO)cc4OCC32)CC1 (single isomer, unassigned) [Compound 33]
21 | 2 | 0.398 | 63.1 | CC(=Cc1ccccc1)CN1CCN(CC2ON=C3c4ccc(N(C)CCO)cc4OCC32)CC1 (single isomer, unassigned) [Compound 34]
22 | 3.16 | 1.26 | 7.94 | CC(=Cc1cccc(F)c1)CN1CCN(CC2ON=C3c4ccc(N(C)CCO)cc4OCC32)CC1 (stereo not drawn) [Compound 35]
23 | 20 | 2.51 | 25.1 | COc1cc2c(cc1N(C)CCO)OCC1C2=NOC1CN1CCN(CC(C)=Cc2cccc(F)c2)CC1 (stereo not drawn) [Compound 36]
24 | 3.16 | 5.01 | 63.1 | CC(=Cc1ccc(F)cc1)CN1CCN(CC2ON=C3c4ccc(NCCO)cc4OCC32)CC1 (stereo not drawn) [Compound 37]
25 | 79.4 | 1.58 | 12.6 | CC(=Cc1ccc(F)cc1)CN1CCN(CC2ON=C3c4ccc(N(C)CCO)cc4OCC32)CC1 (stereo not drawn) [Compound 38]
26 | 50.1 | 10 | 79.4 | COc1cc2c(cc1N(C)CCO)OCC1C2=NOC1CN1CCN(CC(C)=Cc2ccc(F)cc2)CC1 (stereo not drawn) [Compound 39]
27 | 2.51 | 3.16 | 50.1 | CC(=Cc1ccccc1)CN1CCN(CC2ON=C3c4ccc(N(C)Cc5ccccc5)cc4OCC32)CC1 (stereo not drawn) [Compound 47]
28 | 39.8 | 31.6 | 158 | CC(=Cc1ccccc1)CN1CCN(CC2ON=C3c4ccc(N(C)Cc5ccccc5)cc4OCC32)CC1 (stereo not drawn) [Compound 48]
29 | 1.26 | 0.251 | 7.94 | COc1cc2c(cc1NC(C)=O)OCC1C2=NOC1CN1CCN(CC(C)=Cc2cccc(F)c2)CC1 (stereo not drawn) [Compound 49]
30 | 1.58 | 1 | 15.8 | CC(=Cc1ccccc1)CN1CCN(CC2ON=C3c4ccc(NC(=O)C5CC5)cc4OCC32)CC1 (stereo not drawn) [Compound 51]
